Measured values taken from publication PMC4686663, “Ultrahigh-throughput discovery of promiscuous enzymes by picodroplet functional metagenomics” (Nature Communications, 2015).
Counter-ions that a name gives are not always drawn. Like-named read-outs stand apart in the source and are kept apart here.

Tests used:
P40 = target: T1, P40 (uncultured organism, UniProt A0A141FA90); test: sulfate transfer kinetics; format: biochemical; conditions: acceptor phenolate; ping-pong mechanism
T1 construct: ORF p40 recloned in modified pRSFDuet (NcoI-XhoI), E. coli BL21(DE3); no tag stated

P86 = target: T2, P86 (uncultured organism, UniProt A0A141FA97); test: 4-nitrophenolate release, […] nm, initial rates; format: biochemical; conditions: 100 mM MOPS-NaOH pH 8.0, 150 mM NaCl, 25 °C
T2 construct: N-terminal Strep-tag, pASKIBA5plus (EcoRI-NcoI), E. coli BL21(DE3); Strep-Tactin and gel filtration

P83 = target: T3, P83 (uncultured organism, UniProt A0A141FA94); test: 4-nitrophenolate release, […] nm, initial rates; format: biochemical; conditions: 100 mM MOPS-NaOH pH 8.0, 150 mM NaCl, 25 °C
T3 construct: N-terminal Strep-tag, pASKIBA5plus (BsaI), E. coli BL21(DE3); Strep-Tactin and gel filtration

P84 = P84 (uncultured organism, UniProt A0A141FA95); test: 4-nitrophenolate release, […] nm, initial rates; conditions: 100 mM MOPS-NaOH pH 8.0, 150 mM NaCl, 25 °C
P85 = system: T4, P85; test: 4-nitrophenolate release, […] nm, initial rates; format: biochemical; conditions: 100 mM MOPS-NaOH pH 8.0, 150 mM NaCl, 25 °C
T4 construct: N-terminal Strep-tag, pASKIBA5plus (BsaI), E. coli BL21(DE3); Strep-Tactin and gel filtration

[1] = substrate: O=C1CCc2ccccc2O1; test: purified protein, by the assay type; parameters: Michaelis-Menten kinetics of substrate hydrolysis by purified enzyme, initial rates by absorbance or fluorescence, plate reader
Method: (§1) All enzymatic assays were conducted at 25 °C in a final volume of 200 μl, in the activity buffer (100 mM MOPS-NaOH pH 8.0, containing 150 mM NaCl) that was used throughout the experiments, unless otherwise stated. Measurements were performed in 96-well plate format and product formation followed in SpectraMax M5 or 190 microplate readers. Hydrolysis of substrates with fluorescein leaving groups (1d and 2d) was monitored at the following wavelengths: λexcitation=488 nm and λemission=525 nm. A calibration curve (linearly fit to the equation: fluorescence=1.2 × 10^10 M^−1 [fluorescein]) was used to quantify fluorescein release. Hydrolysis of esters 1, 2a, 2b, 3, 4, 5, 6 and acetamide 9 was monitored by measuring absorbance of p-nitrophenolate at 400 nm (ɛ≈17,700 M^−1 cm^−1). Hydrolysis of thioester 7 was measured in the presence of the indicator 5,5'-dithiobis-(2-nitrobenzoic acid) (500 μM); the increase of 2-nitro-5-thiobenzoate was monitored at 412 nm (ɛ≈13,100 M^−1 cm^−1)[39]. Hydrolysis of lactones 8b, 8c, 8d1, 8d2 was measured using a pH-shift assay in 2.5 mM Bicine, 200 mM NaCl, 0.3 mM cresol purple pH 8.3 (ref. [65]). The pH drop was monitored by the decrease in the absorbance of the indicator dye cresol purple at 577 nm (ɛ≈4,000 M^−1 cm^−1). Hydrolysis of lactone 8a was measured at 270 nm in an ultraviolet-transparent 96-well plate. Hydrolysis of β-lactam 10 was measured at 405 nm in phosphate buffer (100 mM, pH 8.0). All kinetic parameters were calculated by fitting initial rates vo to the Michaelis–Menten equations (or, if saturation could not be reached due to solubility limits, to linear correlations) using Kaleidagraph. Example data and details of equations used for fitting are shown in Supplementary Fig. 14. (b) PTE hits. Applying the screening workflow to PTEs (using triester 2d as substrate) led to the isolation of eight unique and novel sequences, mostly originating from unknown microorganisms (Supplementary Table 2). Only one of these genes (p83) was predicted as a potential PTE by Pfam domain recognition (Fig. 3). […]

[2] = substrate: CC(=O)Oc1ccc([N+](=O)[O-])cc1; test: purified protein, by the assay type; parameters: Michaelis-Menten kinetics of substrate hydrolysis by purified enzyme, initial rates by absorbance or fluorescence, plate reader; conditions: 25.0 °C
Method: as §1

T1 sequence (A0A141FA90 entry or part of it): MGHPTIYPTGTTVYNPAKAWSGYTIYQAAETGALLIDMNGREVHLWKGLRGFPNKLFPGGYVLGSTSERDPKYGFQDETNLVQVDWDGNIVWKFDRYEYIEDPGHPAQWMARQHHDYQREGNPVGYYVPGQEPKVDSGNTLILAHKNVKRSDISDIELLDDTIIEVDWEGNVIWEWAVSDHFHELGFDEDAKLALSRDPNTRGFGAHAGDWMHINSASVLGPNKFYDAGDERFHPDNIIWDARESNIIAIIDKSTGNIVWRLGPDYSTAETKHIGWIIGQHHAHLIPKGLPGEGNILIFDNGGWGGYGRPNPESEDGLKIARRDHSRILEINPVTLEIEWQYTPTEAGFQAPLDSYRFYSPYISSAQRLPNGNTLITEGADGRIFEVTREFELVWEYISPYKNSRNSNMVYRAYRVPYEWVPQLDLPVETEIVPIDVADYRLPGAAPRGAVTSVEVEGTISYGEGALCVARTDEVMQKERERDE
Chain of P84 (A0A141FA95 entry or part of it): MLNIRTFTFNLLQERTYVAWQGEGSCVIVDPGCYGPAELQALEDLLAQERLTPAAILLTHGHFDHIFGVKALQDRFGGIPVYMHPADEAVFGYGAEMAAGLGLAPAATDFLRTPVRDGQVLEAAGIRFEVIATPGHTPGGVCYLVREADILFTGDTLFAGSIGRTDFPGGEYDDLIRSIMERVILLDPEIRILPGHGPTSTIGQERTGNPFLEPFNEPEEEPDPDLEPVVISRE
T2 sequence (A0A141FA97 entry or part of it): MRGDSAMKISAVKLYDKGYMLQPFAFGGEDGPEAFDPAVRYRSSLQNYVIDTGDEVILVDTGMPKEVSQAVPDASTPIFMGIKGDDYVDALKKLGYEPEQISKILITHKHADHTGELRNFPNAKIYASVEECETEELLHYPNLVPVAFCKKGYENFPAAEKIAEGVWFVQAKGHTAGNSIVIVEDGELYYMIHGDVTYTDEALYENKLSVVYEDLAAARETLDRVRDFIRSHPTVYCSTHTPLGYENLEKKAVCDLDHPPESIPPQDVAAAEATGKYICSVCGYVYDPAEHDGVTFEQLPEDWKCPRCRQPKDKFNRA

Molecule: O=[N+]([O-])c1ccc(OS(=O)(=O)O)cc1 [1a, sulfate ester 1a]
- sulfate transfer kinetics (P40): P40 was shown to catalyse sulfate transfer from sulfate ester 1a to phenolate

Molecule: CCOP(=O)(OCC)Oc1ccc([N+](=O)[O-])cc1 [2a, paraoxon]
- Km (P86): > 5 mM
- Km (P83): > 5 mM
- Km (P84): > 5 mM
- Km (P85): > 5 mM

B1: P91 (uncultured organism) (protein)
chain: MTARKVDYTDGATRCIGEFHWDEGKSGPRPGVVVFPEAFGLNDHAKERARRLADLGFAALAADMHGDAQVFDAASLSSTIQGYYGDRAHWRRRAQAALDALTAQPEVDGSKVAAIGFCFGGATCLELARTGAPLTAIVTFHGGLLPEMAGDAGRIQSSVLVCHGADDPLVQDETMKAVMDEFRRDKVDWQVLYLGNAVHSFTDPLAGSHGIPGLAYDATAEARSWTAMCNLFSELFG
notes: N-terminal Strep-tag, pASKIBA5plus (BsaI), E. coli BL21(DE3); Strep-Tactin and gel filtration
- Km ([1]; 25.0 °C): 7.7 ± 2.5 mM

B2: P88.2 (uncultured organism) (protein)
chain: MNLTETLPGDELANAMAARGYPAVEPATTRDRGVGPFRRLVLRGARILDGTGAPPVGPYDIVVEGGRIKEVVLVGVPKMPIKPERRPAPGDHEIDCTGKLVTPGFVDAHVHIGTYYHAPSGPMPSADYVYKLWLAHGITTVREMACMNGVGWTLEQKEAAAANRIAAPKIVAHAYFPAVDEFIKTIYTVEQARKWVRAVKERGVDGLKFFGAPPAIMQAALEEANKLGMRSGCHHAQMSVSKVNALRSAQWGLTSTEHFYGIPEAMFIDRAVQAYPVGYDFMDESLRYNSSSQNFIQAAEPGSAKWQETLEKFLELGHSFVPTLAILEANRDLMRARRADWHDEYTHKTLWTYFQPHRGGHCSHWYRWTTTNEVQWKEHFRRWMRFCNDYKNLGGRVCPGSDAGFTFQLYGFCFIRELEQMQEAGFHPLEIFRAATSESAALLGVDHETGTIEPGKCADLLVHRYDPLDDLKYLYGTGAWRLNDETGKTEWHRGIEYTIKDGVIYDPAELLADVRAIVAESFNEGEDTRPRTRR
notes: N-terminal Strep-tag, pASKIBA5plus (EcoRI-NcoI), E. coli BL21(DE3); Strep-Tactin and gel filtration
- Km [2]: 2.9 ± 1.2 mM

B3: P83 (uncultured organism) (protein)
chain: MQINSVLGPVDTADLGFTLIHEHLLIGWAGWQWDSRWEFDRANAMAKAVDLLQELKALGVSTFVDPCPMDIGRDPEFLAEASQRSGMTIIASTGLYHSEMGIPSYFHAMPEEEIAEIFIHDLTEGMGHTGIKAGIIKCATTAGHVTEQEQKTHGAAARAQVATGAPIITHTDENGPMGLAQLDIFESRGASVSKIAIGHSCGNGDIRYLLSVLERGAWLSFDRFGFGLSASDDVRVASLLGLIGLGYADRLMISHDSVSTFLAKPGGWDPAQEPSLANWKPTHIIQNIIPRLKNAGVSQEVIDTITIDNPRRYFEGSAASGNK
notes: as for B1
- Km [1]: 2.5 ± 0.4 mM
